US8952150B2, “Prostaglandin transporter inhibitors and uses thereof” (Albert Einstein College of Medicine of Yeshiva University, priority 2009, dated 2015)

Tests used:
[1] = target: rat PGT (Rattus norvegicus (Rat), UniProt Q00910); assay: [3H]PGE2 uptake inhibition in MDCK cells stably transfected with rat PGT (percent inhibition and IC50); type: cell-based; conditions: for Inh (% of Ctl) 0.5 μM: 0.5 μM compound; for Inh (% of Ctl) 0.5 μM / Inh (% of Ctl) 2.5 μM / Inh (% of Ctl) 5 μM / Inh (% of Ctl) 1 μM / Inh (% of Ctl) 10 μM / Inh (% of Ctl) 0.1 μM: inhibition of [3H]PGE2 uptake; for IC50: [3H]PGE2 uptake, MDCK cells stably transfected with rat PGT; for Inh (% of Ctl) 2.5 μM: 2.5 μM compound; for Inh (% of Ctl) 5 μM: 5 μM compound; for Inh (% of Ctl) 1 μM: 1 μM compound; for Inh (% of Ctl) 10 μM: 10 μM compound; for Inh (% of Ctl) 0.1 μM: 0.1 μM compound
How it was run: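 Rat PGT-transfected MDCK cells, on day 4 after seeding, took up [3H]PGE2 in Waymouth buffer at room temperature, with compound (EtOH stock diluted in buffer) added immediately before tracer. Intracellular radioactivity counted after lysis; percent inhibition versus vehicle, IC50 by fitting y=m1−m1*(m0/(m2+m0)).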

[2] = system: full-thickness wounds; assay: Wound healing: topical application to full-thickness wounds on the back of mice; type: in vivo; conditions: 5 mm full-thickness wounds
Procedure: FIG. 1A-1B. Prostaglandin transporter (PGT) inhibitors accelerate wound healing. […] B. Averaged wound areas of 4 mice, each of them had 2 wounds and received topically applied vehicle Veh1 (2% DMSO+2% cremophor in water) on one wound and T26A on the other. On the wounds of a separate group of 4 mice, vehicle Veh2 (2% EtOH) was applied to one wound and 200 μM PGE2 was applied to the other.
Studies were conducted using compound T26A (Table 1). Two full-thickness wounds with diameter of 5 mm were created on the back of mice symmetrically under the shoulder blades. 50 μL vehicle (2% DMSO+2% cremophor in water) was applied to one wound (FIG. 1A, top panel), and that of 2 mM T26A was applied to the other (FIG. 1A, bottom panel), immediately after surgery and every other day afterwards. […] On the wounds of a separate group of 4 mice, vehicle Veh2 (2% EtOH, yellow) was applied to one wound and 200 μM PGE2 (green) was applied to the other. Results were statistically significant (p<0.05, T26A vs. vehicle).

Inh (% of Ctl) 0.5 μM [1]	Inh (% of Ctl) 5 μM [1]	Inh (% of Ctl) 1 μM [1]	Inh (% of Ctl) 10 μM [1]	SMILES	other results
		7.5 % of Ctl	46.1 % of Ctl	COC(=O)c1ccc(Nc2nc(NCCOCCOCCNC(=O)c3ccccc3)nc(Nc3ccccc3)n2)cc1 [compound 61]	
10.9 % of Ctl	64.4 % of Ctl			CC(C)(NC(=O)c1ccc(Nc2nc(NCCOCCOCCNC(=O)c3ccccc3)nc(Nc3ccc(O)cc3)n2)cc1)c1ccccc1 [compound 66]	
12.9 % of Ctl	27.7 % of Ctl			Nc1ccc(Nc2nc(NCCOCCOCCNC(=O)c3ccccc3)nc(Nc3ccc(O)cc3)n2)cc1 [compound 25]	
5.4 % of Ctl	54.9 % of Ctl			O=C(NCCOCCOCCNc1nc(Nc2ccc(O)cc2)nc(Nc2ccc(C(=O)N[C@@H](C(=O)O)c3ccccc3)cc2)n1)c1ccccc1 [compound 79]	Inh (% of Ctl) 2.5 μM [1]: 29.2 % of Ctl
15.5 % of Ctl	77.2 % of Ctl	71.6 % of Ctl	90.2 % of Ctl	O=C(NCCOCCOCCNc1nc(Nc2ccc(C(=O)NCc3ccccc3)cc2)nc(Nc2ccc3[nH]ncc3c2)n1)c1ccccc1 [compound 64]	IC50 [1]: 115 nM
9.6 % of Ctl	14.4 % of Ctl			NC(=O)c1ccc(Nc2nc(NCCOCCOCCNC(=O)c3ccccc3)nc(Nc3ccc(O)cc3)n2)cc1 [compound 20]	
	41.0 % of Ctl	16.25 % of Ctl	52.5 % of Ctl	O=C(O)c1ccc(Nc2nc(NCCOCCOCCNC(=O)c3ccccc3)nc(Nc3ccccc3)n2)cc1 [compound 58]	
		0.3 % of Ctl	6.6 % of Ctl	CC(=O)NCCOCCOCCNc1nc(Nc2ccccc2)nc(Nc2ccc(O)cc2)n1 [compound 41]	
15.0 % of Ctl	70.8 % of Ctl			CN(Cc1ccccc1)C(=O)c1ccc(Nc2nc(NCCOCCOCCNC(=O)c3ccccc3)nc(Nc3ccc(O)cc3)n2)cc1 [compound 68]	
15.7 % of Ctl	68.2 % of Ctl			O=C(NCCO)c1ccc(Nc2nc(NCCOCCOCCNC(=O)c3ccccc3)nc(Nc3ccc(O)cc3)n2)cc1 [compound 21]	
		15.9 % of Ctl	49.6 % of Ctl	O=C(NCCOCCOCCNc1nc(Nc2ccccc2)nc(Nc2ccc(O)cc2)n1)c1ccncc1 [compound 29]	
	13.7 % of Ctl	5.7 % of Ctl	37.1 % of Ctl	O=C(NCCCCNc1nc(Nc2ccccc2)nc(Nc2ccc(O)cc2)n1)c1ccccc1 [compound 84]	
		7.2 % of Ctl	34.5 % of Ctl	COC(=O)Cc1ccc(Nc2nc(NCCOCCOCCNC(=O)c3ccccc3)nc(Nc3ccccc3)n2)cc1 [compound 60]	
51.6 % of Ctl	82.0 % of Ctl			COC(=O)[C@@H](NC(=O)c1ccc(Nc2nc(NCCOCCOCCNC(=O)c3ccccc3)nc(Nc3ccc(O)cc3)n2)cc1)c1ccccc1 [compound 74]	Inh (% of Ctl) 0.1 μM [1]: 45.0 % of Ctl; Inh (% of Ctl) 2.5 μM [1]: 56.9 % of Ctl
41.9 % of Ctl	88.0 % of Ctl			Cc1ccc(CNC(=O)c2ccc(Nc3nc(NCCOCCOCCNC(=O)c4ccccc4)nc(Nc4ccc(O)cc4)n3)cc2)cc1 [compound 102]	Inh (% of Ctl) 2.5 μM [1]: 65.7 % of Ctl

Continued, compound first:

SMILES	Inh (% of Ctl) 0.5 μM [1]	Inh (% of Ctl) 5 μM [1]	Inh (% of Ctl) 1 μM [1]	Inh (% of Ctl) 10 μM [1]	other results
[N-]=[N+]=NCCOCCOCCNC(=O)c1ccc(Nc2nc(NCCOCCOCCNC(=O)c3ccccc3)nc(Nc3ccc(O)cc3)n2)cc1 [T26A, reference compound]	72.65 % of Ctl				IC50 [1]: 378 nM; vascularization and blood flow in the wound ([2]; 2 mM T26A applied topically): increased vascularization and blood flow in the wound; wound healing (wound area) ([2]; 50 μL of 2 mM T26A topically immediately after surgery and every other day, 10 day period, vs vehicle (2% DMSO+2% cremophor in water), p<0.05 T26A vs. vehicle): accelerates wound healing
O=C(NCCOCCOCCNc1nc(Nc2ccc(O)cc2)nc(Nc2ccc3c(c2)C(=O)NC3=O)n1)c1ccccc1 [compound 77]	1.8 % of Ctl	23.2 % of Ctl			Inh (% of Ctl) 2.5 μM [1]: 4.3 % of Ctl
CCCCCCNC(=O)c1ccc(Nc2nc(NCCOCCOCCNC(=O)c3ccccc3)nc(Nc3ccc4[nH]ncc4c3)n2)cc1 [compound 65]	18.4 % of Ctl	84.0 % of Ctl	66.4 % of Ctl	90.0 % of Ctl	IC50 [1]: 1380 nM
O=C(NCCCCCCCNc1nc(Nc2ccccc2)nc(Nc2ccc(O)cc2)n1)c1ccccc1 [compound 63]			11.0 % of Ctl	44.1 % of Ctl	
O=C(NCCOCCOCCNc1nc(Nc2ccc(O)cc2)nc(NC2CCCCC2)n1)c1ccccc1 [compound 27]	28.2 % of Ctl	53.8 % of Ctl			
O=C(NCCCCCCNc1nc(Nc2ccccc2)nc(Nc2ccc(O)cc2)n1)c1ccccc1 [compound 62]			20.4 % of Ctl	50.1 % of Ctl	
O=C(NCCOCCOCCNc1nc(Nc2ccc(O)cc2)nc(Nc2ccc(C(=O)NCc3cc(F)cc(F)c3)cc2)n1)c1ccccc1 [compound 130]	73.2 % of Ctl		81.7 % of Ctl		Inh (% of Ctl) 0.1 μM [1]: 41.6 % of Ctl
N[C@@H](C(=O)NCCOCCNc1nc(Nc2ccc(O)cc2)nc(Nc2ccc(C(=O)NCc3ccccc3)cc2)n1)c1ccccc1 [compound 132]	22.1 % of Ctl		32.4 % of Ctl		Inh (% of Ctl) 0.1 μM [1]: 15.0 % of Ctl
CCCCCCNc1nc(Nc2ccccc2)nc(Nc2ccc(O)cc2)n1 [compound 55]			12.7 % of Ctl	26.1 % of Ctl	
N[C@H](Cc1ccccc1)C(=O)NCCOCCNc1nc(Nc2ccc(O)cc2)nc(Nc2ccc(C(=O)NCc3ccccc3)cc2)n1 [compound 133]	12.6 % of Ctl		19.4 % of Ctl		Inh (% of Ctl) 0.1 μM [1]: 4.3 % of Ctl
O=C(NCCOCCOCCNc1nc(Nc2ccc(O)cc2)nc(Nc2ccc(C(=O)NCc3c(F)cccc3F)cc2)n1)c1ccccc1 [compound 128]	71.8 % of Ctl		82.2 % of Ctl		Inh (% of Ctl) 0.1 μM [1]: 36.6 % of Ctl
O=C(O)COCCOCCNc1nc(Nc2ccccc2)nc(Nc2ccc(O)cc2)n1 [compound 51]			17.4 % of Ctl	29.8 % of Ctl	
O=C(NCCOCCO)c1ccc(Nc2nc(NCCOCCOCCNC(=O)c3ccccc3)nc(Nc3ccc(O)cc3)n2)cc1 [compound 18]	21.1 % of Ctl	48.9 % of Ctl			
COCCOCCOCCNC(=O)c1ccc(Nc2nc(NCCOCCOCCNC(=O)c3ccccc3)nc(Nc3ccc(O)cc3)n2)cc1 [compound 19]	41.3 % of Ctl	75.0 % of Ctl			
O=C(NCCOCCOCCNc1nc(Nc2ccc(O)cc2)nc(Nc2ccc(N3CCOCC3)cc2)n1)c1ccccc1 [compound 24]	1.7 % of Ctl	9.2 % of Ctl			
O=C(NCc1ccc(F)cc1)c1ccc(Nc2nc(Nc3ccc(O)cc3)nc(Nc3ccc(O)cc3)n2)cc1 [compound 145]	3.1 % of Ctl		6.9 % of Ctl		Inh (% of Ctl) 0.1 μM [1]: 7.1 % of Ctl
O=C(NCCOCCNc1nc(Nc2ccc(O)cc2)nc(Nc2ccc(C(=O)NCc3ccccc3)cc2)n1)Nc1ccccc1 [compound 139]	30.7 % of Ctl		39.0 % of Ctl		Inh (% of Ctl) 0.1 μM [1]: 16.3 % of Ctl
O=C(O)CCCCCCNc1nc(Nc2ccccc2)nc(Nc2ccc(O)cc2)n1 [compound 52]			0.1 % of Ctl	1.8 % of Ctl	
